Laboratory results published in publication PMC8518114, “Safety, tolerability and pharmacokinetics of emodepside, a potential novel treatment for onchocerciasis (river blindness), in healthy male subjects” (British Journal of Clinical Pharmacology, 2021).

Columns and labels:
healthy male subjects = assay: Safety: treatment-emergent adverse events, SAD study; assay type: in vivo, human
Method: Safety was assessed by monitoring adverse events (AEs) throughout the studies that were coded using the standard Medical Dictionary for Regulatory Activities (MedDRA) dictionary (versions 19.0 [SAD part 1], 20.0 [SAD part 2] and 21.1 [MAD]). Other safety monitoring included 12‐lead electrocardiography recordings, measurement of vital signs (systolic and diastolic blood pressure and heart rate), physical and neurological (Hamilton depression rating scale[17] and Beck depression inventory‐II fastscreen[18] [SAD only], mental status examination, cranial nerves assessment and motor system examination, sensation to light touch, coordination/cerebellar function assessment, Romberg's test, gait test, daytime sleepiness assessment [SAD and MAD studies]) examinations, haematology, biochemistry and urinalysis. To minimise risks in the SAD and MAD studies, subjects were dosed sequentially using sentinels in each cohort (1 IP, 1 placebo) as per European Medicines Agency guidelines.[19] If the previous dose was well tolerated, with no safety concerns, dose escalation was decided by the Safety Review Group after reviewing safety and PK data from all available cohorts. Moreover, treatment with the highest dose in the SAD study was repeated (cohort 10) for regular ophthalmological evaluations (assessments available as supplementary information) to better characterise visual AEs observed in the SAD study. Regular ophthalmological assessments were also performed in the MAD study.

[1] = rat, in vivo; cited from earlier work
From the text: This is in line with nonclinical PK studies in rats and dogs, in which emodepside volume ...

[2] = SAD Part 2, 10 mg LSF (fed) n = 6
[3] = SAD Part 2, 40 mg LSF (fasting) n = 6

CC(C)C[C@H]1C(=O)O[C@H](Cc2ccc(N3CCOCC3)cc2)C(=O)N(C)[C@@H](CC(C)C)C(=O)O[C@H](C)C(=O)N(C)[C@@H](CC(C)C)C(=O)O[C@H](Cc2ccc(N3CCOCC3)cc2)C(=O)N(C)[C@@H](CC(C)C)C(=O)O[C@H](C)C(=O)N1C [emodepside]
TEAE: Psychiatric disorders (healthy male subjects; SAD Part 1, 10 mg LSF n = 6): 0 n (%)
TEAE: Respiratory, thoracic and mediastinal disorders (healthy male subjects; SAD Part 1, 10 mg LSF n = 6): 1 (16.7) n (%)
Any TEAE (healthy male subjects; SAD Part 1, 20 mg IRT n = 6): 2 (33.3) n (%)
TEAE: Eye disorders (healthy male subjects; SAD Part 1, 20 mg IRT n = 6): 0 n (%)
TEAE: Gastrointestinal disorders (healthy male subjects; SAD Part 1, 20 mg IRT n = 6): 1 (16.7) n (%)
TEAE: General disorders and administration site disorders (healthy male subjects; SAD Part 1, 20 mg IRT n = 6): 0 n (%)
TEAE: Infections and infestations (healthy male subjects; SAD Part 1, 20 mg IRT n = 6): 0 n (%)
TEAE: Injury, poisoning and procedural complications (healthy male subjects; SAD Part 1, 20 mg IRT n = 6): 0 n (%)
TEAE: Musculoskeletal and connective tissue disorders (healthy male subjects; SAD Part 1, 20 mg IRT n = 6): 1 (16.7) n (%)
TEAE: Nervous system disorders (healthy male subjects; SAD Part 1, 20 mg IRT n = 6): 1 (16.7) n (%)
TEAE: Psychiatric disorders (healthy male subjects; SAD Part 1, 20 mg IRT n = 6): 0 n (%)
TEAE: Respiratory, thoracic and mediastinal disorders (healthy male subjects; SAD Part 1, 20 mg IRT n = 6): 1 (16.7) n (%)
Any TEAE (healthy male subjects; SAD Part 1, 20 mg LSF n = 6): 3 (50.0) n (%)
TEAE: Eye disorders (healthy male subjects; SAD Part 1, 20 mg LSF n = 6): 1 (16.7) n (%)
TEAE: Gastrointestinal disorders (healthy male subjects; SAD Part 1, 20 mg LSF n = 6): 0 n (%)
TEAE: General disorders and administration site disorders (healthy male subjects; SAD Part 1, 20 mg LSF n = 6): 0 n (%)
TEAE: Infections and infestations (healthy male subjects; SAD Part 1, 20 mg LSF n = 6): 1 (16.7) n (%)
TEAE: Injury, poisoning and procedural complications (healthy male subjects; SAD Part 1, 20 mg LSF n = 6): 1 (16.7) n (%)
TEAE: Musculoskeletal and connective tissue disorders (healthy male subjects; SAD Part 1, 20 mg LSF n = 6): 0 n (%)
TEAE: Nervous system disorders (healthy male subjects; SAD Part 1, 20 mg LSF n = 6): 1 (16.7) n (%)
TEAE: Psychiatric disorders (healthy male subjects; SAD Part 1, 20 mg LSF n = 6): 0 n (%)
TEAE: Respiratory, thoracic and mediastinal disorders (healthy male subjects; SAD Part 1, 20 mg LSF n = 6): 1 (16.7) n (%)
Any TEAE (healthy male subjects; SAD Part 1, 40 mg LSF n = 6): 5 (83.3) n (%)
TEAE: Eye disorders (healthy male subjects; SAD Part 1, 40 mg LSF n = 6): 5 (83.3) n (%)
TEAE: Gastrointestinal disorders (healthy male subjects; SAD Part 1, 40 mg LSF n = 6): 0 n (%)
TEAE: General disorders and administration site disorders (healthy male subjects; SAD Part 1, 40 mg LSF n = 6): 0 n (%)
TEAE: Infections and infestations (healthy male subjects; SAD Part 1, 40 mg LSF n = 6): 1 (16.7) n (%)
TEAE: Injury, poisoning and procedural complications (healthy male subjects; SAD Part 1, 40 mg LSF n = 6): 0 n (%)
TEAE: Musculoskeletal and connective tissue disorders (healthy male subjects; SAD Part 1, 40 mg LSF n = 6): 1 (16.7) n (%)
TEAE: Nervous system disorders (healthy male subjects; SAD Part 1, 40 mg LSF n = 6): 3 (50.0) n (%)
TEAE: Psychiatric disorders (healthy male subjects; SAD Part 1, 40 mg LSF n = 6): 0 n (%)
TEAE: Respiratory, thoracic and mediastinal disorders (healthy male subjects; SAD Part 1, 40 mg LSF n = 6): 0 n (%)
Any TEAE (healthy male subjects; [2]): 3 (50.0) n (%)
TEAE: Eye disorders (healthy male subjects; [2]): 0 n (%)
TEAE: Gastrointestinal disorders (healthy male subjects; [2]): 0 n (%)
TEAE: General disorders and administration site disorders (healthy male subjects; [2]): 0 n (%)
TEAE: Infections and infestations (healthy male subjects; [2]): 0 n (%)
TEAE: Injury, poisoning and procedural complications (healthy male subjects; [2]): 0 n (%)
TEAE: Musculoskeletal and connective tissue disorders (healthy male subjects; [2]): 0 n (%)
TEAE: Nervous system disorders (healthy male subjects; [2]): 2 (33.3) n (%)
TEAE: Psychiatric disorders (healthy male subjects; [2]): 0 n (%)
TEAE: Respiratory, thoracic and mediastinal disorders (healthy male subjects; [2]): 1 (16.7) n (%)
Any TEAE (healthy male subjects; [3]): 5 (83.3) n (%)
TEAE: Eye disorders (healthy male subjects; [3]): 5 (83.3) n (%)
TEAE: Gastrointestinal disorders (healthy male subjects; [3]): 3 (50.0) n (%)
TEAE: General disorders and administration site disorders (healthy male subjects; [3]): 3 (50.0) n (%)
TEAE: Infections and infestations (healthy male subjects; [3]): 0 n (%)
TEAE: Injury, poisoning and procedural complications (healthy male subjects; [3]): 0 n (%)
TEAE: Musculoskeletal and connective tissue disorders (healthy male subjects; [3]): 1 (16.7) n (%)
TEAE: Nervous system disorders (healthy male subjects; [3]): 4 (66.7) n (%)
TEAE: Psychiatric disorders (healthy male subjects; [3]): 1 (16.7) n (%)
TEAE: Respiratory, thoracic and mediastinal disorders (healthy male subjects; [3]): 1 (16.7) n (%)
Drug-related visual disorder TEAEs (healthy male subjects; SAD, 10 mg LSF in the fasting state): 2 subjects
Drug-related visual disorder TEAEs (healthy male subjects; SAD, 40 mg LSF in the fasting state): 5 subjects
Time to spontaneous resolution of drug-related visual disorder TEAEs (healthy male subjects; SAD, all mild): ≤ 24 h
Onset of drug-related visual disorder TEAEs post-dose (healthy male subjects; in vivo): 20 to 240 min
Onset of drug-related visual disorder TEAEs, most often (healthy male subjects; in vivo): 1 to 2.5 h
Radioactivity levels in tissues vs blood, radio-labelled emodepside [1]: higher in most tissues than in the blood
